From US5112806A, “Antibiotic, mersacidin, a process for the preparation thereof and the use thereof as a pharmaceutical” (Hoechst Aktiengesellschaft, priority 1988, dated 1992)
Like-named read-outs stand apart in the source and are kept apart here.

Columns and labels:
S. aureus 3066 = experiment: MIC, growth inhibition in vitro; type: cell-based
Source text: (§1) The biological properties of mersacidin as the MIC values required for inhibition of the growth of various microorganisms are listed in Table 3.

S. aureus 710 = experiment: MIC, growth inhibition in vitro; type: cell-based
Source text: as §1

S. aureus R 85 = experiment: MIC, growth inhibition in vitro; type: cell-based
Source text: as §1

[1] = system: Staphylococcus aureus 209P; experiment: MIC, growth inhibition in vitro; type: cell-based
Source text: as §1

S. aureus 25923 = experiment: MIC, growth inhibition in vitro; type: cell-based; conditions: Table 5
S. epidermidis 32965 = experiment: MIC, growth inhibition in vitro; type: cell-based; conditions: Table 5
S. epidermidis 823 = experiment: MIC, growth inhibition in vitro; type: cell-based; conditions: Table 5
S. haemolyticus 712 = experiment: MIC, growth inhibition in vitro; type: cell-based; conditions: Table 5
S. haemolyticus 809 = experiment: MIC, growth inhibition in vitro; type: cell-based; conditions: Table 5
[2] = system: Streptococcus hominis ML 22; experiment: MIC, growth inhibition in vitro; type: cell-based; conditions: Table 5
[3] = system: Streptococcus faecalis 29212; experiment: MIC, growth inhibition in vitro; type: cell-based; conditions: Table 5
[4] = system: Streptococcus faecalis 21777; experiment: MIC, growth inhibition in vitro; type: cell-based; conditions: Table 5
S. aureus SG 511 [5] = experiment: In vivo activity against S. aureus SG 511 infection in mice
Method: On subcutaneous administration in a dose of 9.37 and 25.00 mg/kg to laboratory mice infected experimentally with Staphylococcus aureus SG 511 and S. aureus 710 (resistant to methicillin), […].
In vivo activity of mersacidin against S. aureus SG 511
infection in mice compared with vancomycin.
Inoculation medium used: 1.75 × 10^9 CFU/mouse

S. aureus E 710 (MRSA) = experiment: In vivo activity against S. aureus E 710 (MRSA) in mice
Method: On subcutaneous administration in a dose of 9.37 and 25.00 mg/kg to laboratory mice infected experimentally with Staphylococcus aureus SG 511 and S. aureus 710 (resistant to methicillin), […]. […]

S. aureus C 31153 = experiment: In vivo activity against S. aureus C 31153 infection in mice; conditions: S. aureus C 31153 (Methicillin & Caphalexin resistant), 2 × 10^9 CFU/mouse
Source text: (§2) In vivo activity of potassium mersacidin against S. aureus
(§3) and Streptococcus pyogenes A 77 infection in mice

[6] = system: Streptococcus pyogenes A 77; experiment: In vivo activity against Streptococcus pyogenes A 77 infection in mice; conditions: Streptococcus pyogenes A 77, 3,8 × 10^3 CFU/mouse
Source text: as §2, §3

physchem = conditions: water
Method: These salts can be prepared by the treatment of mersacidin with 1.0 equivalent of the corresponding alkali metal hydroxide in the presence of pyridine. For example, mersacidin (50 mg) was dissolved in 1 ml of pyridine, the solution cooled to 0° C. and a solution of 1.683 mg of KOH in 3 ml of distilled water was added under stirring.

Bacillus subtilis = experiment: MIC, growth inhibition in vitro; type: cell-based
Source text: as §1

Cornybacterium JK = experiment: MIC, growth inhibition in vitro; type: cell-based
Source text: as §1

Group A Streptococci = experiment: MIC, growth inhibition in vitro; type: cell-based
Source text: as §1

Group B Streptococci = experiment: MIC, growth inhibition in vitro; type: cell-based
Source text: as §1

Group C Streptococci = experiment: MIC, growth inhibition in vitro; type: cell-based
Source text: as §1

Group G Streptococci = experiment: MIC, growth inhibition in vitro; type: cell-based
Source text: as §1

Listeria monocyctogenes = experiment: MIC, growth inhibition in vitro; type: cell-based
Source text: as §1

Micrococcus luteus = experiment: MIC, growth inhibition in vitro; type: cell-based
Source text: as §1

[7] = system: Peptostreptococci species; experiment: MIC, growth inhibition in vitro; type: cell-based
Source text: as §1

Propionibacterium genes = experiment: MIC, growth inhibition in vitro; type: cell-based
Source text: as §1

S. aureus 20240 = experiment: MIC, growth inhibition in vitro; type: cell-based
Source text: as §1

S. aureus 20424 = experiment: MIC, growth inhibition in vitro; type: cell-based
Source text: as §1

S. aureus 20666 = experiment: MIC, growth inhibition in vitro; type: cell-based
Source text: as §1

S. aureus 285 = experiment: MIC, growth inhibition in vitro; type: cell-based
Source text: as §1

S. aureus 503 = experiment: MIC, growth inhibition in vitro; type: cell-based
Source text: as §1

S. aureus 722 = experiment: MIC, growth inhibition in vitro; type: cell-based
Source text: as §1

S. aureus 789 = experiment: MIC, growth inhibition in vitro; type: cell-based
Source text: as §1

S. aureus E 712 = experiment: MIC, growth inhibition in vitro; type: cell-based
Source text: as §1

S. aureus E 88 = experiment: MIC, growth inhibition in vitro; type: cell-based
Source text: as §1

S. epidermidis MRSE = experiment: MIC, growth inhibition in vitro; type: cell-based
Source text: as §1

S. epidermidis MSSE = experiment: MIC, growth inhibition in vitro; type: cell-based
Source text: as §1

[8] = system: Staphylococcus aureus SG 511; experiment: MIC, growth inhibition in vitro; type: cell-based
Source text: as §1

Str. D 21777 = experiment: MIC, growth inhibition in vitro; type: cell-based
Source text: as §1

Streptococcus bovis = experiment: MIC, growth inhibition in vitro; type: cell-based
Source text: as §1

Streptococcus faecalis [9] = experiment: MIC, growth inhibition in vitro; type: cell-based; conditions: Streptococcus faecalis (Table 3 no. 17)
Source text: as §1

Streptococcus pneumoniae = experiment: MIC, growth inhibition in vitro; type: cell-based
Source text: as §1

Streptococcus viridans = experiment: MIC, growth inhibition in vitro; type: cell-based
Source text: as §1

Streptococcus faecalis [10] = experiment: MIC, growth inhibition in vitro (second entry, no. 27); type: cell-based; conditions: Streptococcus faecalis (Table 3 no. 27)
Source text: as §1

S. aureus SG 511 [11] = experiment: In vivo activity against S. aureus SG 511 abscess in rats; conditions: infecting dose 2 × 10^-9 CFU in 5% mucin under the skin, 50 mg/kg × 7 days
Method: In vivo activity of mersacidin against S. aureus SG 511 abscess in rats, compared with vancomycin.
Infecting dose : […] in 5% mucin, injected under the skin.
Treatment: 50 mg/kg × 7 days

[12] = Animal mortality after subcutaneous dose; type: in vivo; conditions: laboratory mice; 500 mg/kg subcutaneous, highest concentration tested
S. aureus SG 511 [13] = experiment: In vivo activity against S. aureus SG 511 infection in mice; remark: listed apart in the source
[14] = S. aureus SG 511, 1.75 × 10^9 CFU/mouse, 9.37 mg/kg × 3, s.c.
[15] = S. aureus E 710 (MRSA), 5 × 10^9 CFU/mouse (1 MLD), 6.25 mg/kg × 3, s.c.
[16] = S. aureus E 710 (MRSA), 5 × 10^9 CFU/mouse (1 MLD), 9.37 mg/kg × 3, s.c.
[17] = S. aureus E 710 (MRSA), 5 × 10^9 CFU/mouse (1 MLD), 12.50 mg/kg × 3, s.c.
[18] = S. aureus E 710 (MRSA), 5 × 10^9 CFU/mouse (1 MLD), 25.00 mg/kg × 3, s.c.
[19] = S. aureus E 710 (MRSA), 5 × 10^9 CFU/mouse (1 MLD), s.c.
[20] = mice, S. aureus SG 511, 1.75 × 10^9 CFU/mouse, 0.80 mg/kg × 3, s.c.
[21] = mice, S. aureus SG 511, 1.75 × 10^9 CFU/mouse, 1.60 mg/kg × 3, s.c.
[22] = mice, S. aureus SG 511, 1.75 × 10^9 CFU/mouse, 3.12 mg/kg × 3, s.c.
[23] = mice, S. aureus SG 511, 1.75 × 10^9 CFU/mouse, 6.25 mg/kg × 3, s.c.

C=C1NC(=O)[C@@H]2NC(=O)[C@H](CC(C)C)NC(=O)[C@H](NC(=O)[C@@H]3CS[C@@H](C)[C@@H](NC(=O)[C@H](Cc4ccccc4)NC(=O)[C@@H]4NC(=O)[C@@H](N)CS[C@H]4C)C(=O)N[C@@H](CC(C)C)C(=O)N4CCC[C@H]4C(=O)NCC(=O)NCC(=O)NCC(=O)NCC(=O)N[C@@H](C(C)C)C(=O)N3)[C@H](C)SC[C@H](NC(=O)[C@H](CCC(=O)O)NC1=O)C(=O)N[C@@H]([C@@H](C)CC)C(=O)N/C=C\S[C@H]2C [potassium mersacidin]
MIC values (S. aureus 3066; Table 5): 10 µg/mL
MIC values (S. aureus 710; Table 5): 1 µg/mL
MIC values (S. aureus R 85; Table 5): 2 µg/mL
MIC values ([1]; Table 5): 2 µg/mL
MIC values (S. aureus 25923): 8 µg/mL
MIC values (S. epidermidis 32965): 6 µg/mL
MIC values (S. epidermidis 823): 50 µg/mL
MIC values (S. haemolyticus 712): 10 µg/mL
MIC values (S. haemolyticus 809): 4 µg/mL
MIC values [2]: 10 µg/mL
MIC values [3]: 15 µg/mL
MIC values [4]: 15 µg/mL
50% Effective Dose (ED50) (S. aureus SG 511 [5]; S. aureus SG 511 (Methicillin sensitive), 1,75 × 10^9 CFU/mouse): 2,85 mg/kg × 3, s.c.
50% Effective Dose (ED50) (S. aureus E 710 (MRSA); S. aureus E 710 (Methicillin resistant), 1 × 10^10 CFU/mouse): 6,72 mg/kg × 3, s.c.
50% Effective Dose (ED50) (S. aureus C 31153): 15,35 mg/kg × 3, s.c.
50% Effective Dose (ED50) [6]: 0,46 mg/kg × 3, s.c.
solubility (physchem): ≥ 160 mg/mL

mersacidin
MIC values (Bacillus subtilis): 0,39-0,78 μg/ml
MIC values (Cornybacterium JK): 2,0-4,0 μg/ml
MIC values (Group A Streptococci): 0,5-8,0 μg/ml
MIC values (Group B Streptococci): 1,0-8,0 μg/ml
MIC values (Group C Streptococci): 2,0-64 μg/ml
MIC values (Group G Streptococci): 2,0-8,0 μg/ml
MIC values (Listeria monocyctogenes): 16,0-64,0 μg/ml
MIC values (Micrococcus luteus): 0,0975-0,195 μg/ml
MIC values [7]: 0,5-8,0 μg/ml
MIC values (Propionibacterium genes): 1,0-16,0 μg/ml
MIC values (S. aureus 20240): 3.12 to 6.25 µg/mL
MIC values (S. aureus 20424): 1.56 to 3.12 µg/mL
MIC values (S. aureus 20666): 3,12-6,25 μg/ml
MIC values (S. aureus 285): 0,78-1,56 μg/ml
MIC values (S. aureus 3066): 12.50 to 25.00 µg/mL
MIC values (S. aureus 503): 0.78 to 1.56 µg/mL
MIC values (S. aureus 710): 0,39-0,78 μg/ml
MIC values (S. aureus 722): 3.12 to 6.25 µg/mL
MIC values (S. aureus 789): 0.78 to 1.56 µg/mL
MIC values (S. aureus E 712): 3,12-6,25 μg/ml
MIC values (S. aureus E 88): 6.25 to 12.50 µg/mL
MIC values (S. aureus R 85): 0,39-0,78 μg/ml
MIC values (S. epidermidis MRSE): 0,5-16,0 μg/ml
MIC values (S. epidermidis MSSE): 0,5-16,0 μg/ml
MIC values [1]: 0.78 to 1.56 µg/mL
MIC values [8]: 0,39-0,78 μg/ml
MIC values (Str. D 21777): 1,56-3,12 μg/ml
MIC values (Streptococcus bovis): 4,0-32,0 μg/ml
MIC values (Streptococcus faecalis [9]): 0,0975-0,195 μg/ml
MIC values (Streptococcus pneumoniae): 1,0-4,0 μg/ml
MIC values (Streptococcus viridans): 0,5-32,0 μg/ml
MIC values (Streptococcus faecalis [10]): 64,0 μg/ml
Number of mice treated/cured (S. aureus SG 511 [5]; [14]): 53/53
percentage rate of cure (S. aureus SG 511 [5]; [14]): 100%
Approx. ED50 (S. aureus SG 511 [5]; S. aureus SG 511, 1.75 × 10^9 CFU/mouse, s.c.): ~2.59 mg/kg × 3
Number of mice treated/cured (S. aureus E 710 (MRSA); [15]): 1/10
percentage rate of cure (S. aureus E 710 (MRSA); [15]): 10%
Number of mice treated/cured (S. aureus E 710 (MRSA); [16]): 4/10
percentage rate of cure (S. aureus E 710 (MRSA); [16]): 40%
Number of mice treated/cured (S. aureus E 710 (MRSA); [17]): 10/16
percentage rate of cure (S. aureus E 710 (MRSA); [17]): 63%
Number of mice treated/cured (S. aureus E 710 (MRSA); [18]): 12/12
percentage rate of cure (S. aureus E 710 (MRSA); [18]): 100%
Approx. ED50 (S. aureus E 710 (MRSA); [19]): ~10.81 mg/kg × 3
Approx. ED90 (S. aureus E 710 (MRSA); [19]): ~19.59 mg/kg × 3
reduces bacterial counts by (S. aureus SG 511 [11]): 1.4 log10 CFU/ml
animal mortality [12]: no animal mortality was observed
activity in the in vivo system of laboratory mice (S. aureus SG 511 [13]; mice infected with S. aureus SG 511 and S. aureus 710 (resistant to methicillin), 9.37 and 25.00 mg/kg s.c.): good activity
Number of mice treated/cured (S. aureus SG 511 [13]; [20]): 0/27
percentage rate of cure (S. aureus SG 511 [13]; [20]): 0%
Number of mice treated/cured (S. aureus SG 511 [13]; [21]): 3/24
percentage rate of cure (S. aureus SG 511 [13]; [21]): 12%
Number of mice treated/cured (S. aureus SG 511 [13]; [22]): 18/27
percentage rate of cure (S. aureus SG 511 [13]; [22]): 67%
Number of mice treated/cured (S. aureus SG 511 [13]; [23]): 38/40
percentage rate of cure (S. aureus SG 511 [13]; [23]): 95%
Approx. ED90 (S. aureus SG 511 [13]; mice, S. aureus SG 511, 1.75 × 10^9 CFU/mouse, s.c.): ~5.38 mg/kg × 3
